The text below walks through data of paper PMC12116762, “Topobexin targets the Topoisomerase II ATPase domain for beta isoform-selective inhibition and anthracycline cardioprotection” (Nature Communications, 2025).

Several values for one entry are separate records, joined by “and”; a condition that tells them apart may be missing. Equal entries are not always repeated.

Series [1] deals with neonatal rat ventricular cardiomyocytes (NVCM). Description: Inherent toxicity (LDH release) in NVCM. Set-up: key to LDH release (inherent toxicity), mean of independent replicates: % of total LDH activity. In kind it is cell-based. The following applies: NVCM; for LTC = lowest toxic concentration: compound alone, n=4; for LDH release (inherent toxicity), mean of independent replicates: Suppl.Fig.4. The procedure: (§1) The protective effects of the BNS-22 and newly prepared compounds were evaluated using primary cultures of neonatal rat cardiomyocytes isolated in house as previously described. Hearts isolated from 1- to 3-day-old Wistar rats were minced in buffer (1.2 mM MgSO4 · 7H2O, 116 mM NaCl, 5.3 mM KCl, 1.13 mM NaH2PO4 · H2O, 20 mM 4-(2-hydroxyethyl)-1-piperazine ethanesulfonic acid (HEPES), glucose 1 mg/mL) on ice, then serially digested (20 min, six repetitions) at 37 °C with collagenase type II (60 U/mL, Gibco). After 2 h pre-plating in a 150 mm Petri dish per approximately 20 hearts to minimize non-myocyte contamination, cells were plated in 24-well gelatin-coated plates at a density of 400,000 cells per well. Cells were cultured at 37 °C and 5% CO2 in Dulbecco’s modified Eagle medium (DMEM)/ F12 culture medium supplemented with 10% horse serum, 5% fetal bovine serum (FBS), 20 mM sodium pyruvate, 50 U/mL penicillin, and 50 μg/mL streptomycin. Freshly isolated cells were left for 40 h to attach and form a culture of spontaneously beating cardiomyocytes, then the medium was changed to DMEM/F12 medium supplemented with 5% fetal bovine serum, 20 mM sodium pyruvate, 50 U/mL penicillin, and 50 μg/mL streptomycin. For the experiments, the medium was changed to serum- and pyruvate-free DMEM/F12 with 50 U/mL penicillin and 50 μg/mL streptomycin. Cardiomyocytes were pretreated with BNS-22 or new compounds for 3 h and then coincubated with DAU (1.2 µM) for another 3 h. After the DAU treatment period, the culture medium was exchanged for the drug-free DMEM/F12 with 50 U/mL penicillin and 50 μg/mL streptomycin for the 48 h follow-up. Experiments to determine the inherent toxicity of each compound studied follow the same schedule, only no DAU was added. Subsequently, the culture medium sample was taken from each well for evaluation of lactate dehydrogenase (LDH) activity. The total LDH activity of each sample for normalization was measured after 1 h of incubation at 37 °C in lysis buffer (0.1 M potassium phosphate, 1% Triton X-100, 1 mM dithiothreitol (DTT), 2 mM EDTA, pH 7.8, 15 min in RT). All samples were immediately analyzed in Tris HCl buffer (pH 8.9) containing 35 mM lactic acid and 5 mM NAD^+. The rate of NAD^+ reduction was monitored spectrophotometrically at 340 nm for 2 min. The slope of the linear region was calculated, and the results were expressed as a percentage of the total LDH. Each presented data point was obtained from distinct sample.
A general note: LDH leaks from cells whose membrane has failed.

The next series deals with T1, recombinant human TOP2A (Homo sapiens, UniProt P11388).
T1 construct: Using recombinant full-length human TOP2A and TOP2B enzymes; YFP (N, cleaved yes); made in house; host or cells: HEK293F
Put plainly: In vitro ATPase activity of TOP2A (coupled assay). It counts as biochemical. The following applies: n=3. On the procedure:
(§2) Topoisomerase proteins were diluted to 500 nM in storage buffer containing 20 mM HEPES pH 7.5, 500 mM NaCl, 0.5 mM TCEP, 25% glycerol, and 0.2 mg/mL BSA prior to use. A coupled assay was used to measure TOP2-catalyzed ATP hydrolysis in vitro[37] in Costar 96-well plates (Corning Incorporated). […] Reaction plates were pre-warmed to 30 °C for 5 min and ATP was added last to initiate the reaction. The reaction plate was placed in a CLARIOstarPlus plate reader (BMG Labtech) to measure NADH fluorescence at 30 °C every 30 s over 120 cycles using a 340-60 excitation filter and a 480-100 emission filter. Background fluorescence signals calculated from wells containing no ATP were subtracted from each measurement. The slope of NADH fluorescence decay in each well was calculated using the MARS software (BMG Labtech) and reaction wells that lacked topoisomerase inhibitor to account for photobleaching of NADH fluorescence served as background subtraction. Each presented data point was obtained from distinct sample. Values were normalized to untreated controls and plotted as a function of inhibitor concentration to determine IC50 values using Prism 9 (GraphPad).

The next series concerns the target T2, recombinant human TOP2B (Homo sapiens, UniProt Q02880).
T2 construct: Using recombinant full-length human TOP2A and TOP2B enzymes; YFP (N, cleaved yes); made in house; host or cells: HEK293F
Put plainly: In vitro ATPase activity of TOP2B (coupled assay). It counts as biochemical. As to conditions: for SRbeta (SRTOP2B), TOP2 ATPase activity: TOP2A IC50 divided by TOP2B IC50; for IC50: n=3. On the procedure: as §2

Series [2] relates to neonatal rat ventricular cardiomyocytes (NVCM). Put plainly: Protection against DAU-induced cytotoxicity (LDH release) in NVCM. It counts as cell-based. The arrangement: key to Suppl.Fig.3 DAU-induced cytotoxicity (LDH release) in NVCM, mean of independent replicates / LDH release (DAU-induced cytotoxicity), mean of independent replicates: % of total LDH activity. The following applies: for minimal effective concentration: Rattus norvegicus, Cardiomyocyte, NVCM, protection against DAU 1.2 µM, n=4, read-out: LEC = lowest effective concentration. On the procedure:
as §1

The target in series [3] is T3, TOP2B-DNA covalent complex (Homo sapiens, UniProt Q02880).
T3 construct: endogenous in cells; host or cells: HEK293F
Description: RADAR assay, etoposide-induced TOP2B-DNA covalent complex in HEK293F cells. In kind it is cell-based. The following applies: etoposide 5 μM alone; independent replicates. On the procedure: (§3) HEK293F cells were plated at 3 × 10^5 cells per well and grown overnight. […] Upon removal of media, cells in each well were immediately lysed with 750 µL DNAzol (Molecular Research Center, Inc.) and the DNA was precipitated by addition of 375 µL of 100% ethanol. This step was then repeated to eliminate protein aggregates. Precipitate from each sample was pelleted via centrifugation at 4 °C and max speed for 5 min. The pellets were washed twice with buffer containing 20 mM Tris pH 7.5, 1 mM EDTA pH 8.0, 50 mM NaCl, 50% EtOH, and at the end of each wash, centrifugation at 4000 × g for 2 min was repeated to isolate the DNA pellets. The pellets were washed in 75% EtOH and then collected by centrifugation at 4 °C and max speed for 5 min. The supernatant was removed via pipetting, and the remaining pellets were air dried for 5 min before 50 µL 8 mM NaOH and 0.1% Tween-20 was added to each pellet. Once no visible precipitate remained, each mixture was supplemented with 5 µL of Benzonase buffer containing 500 mM Tris pH 8.0, 10 mM MgCl2, 1/1000 Roche complete protease inhibitor cocktail (Millipore Sigma) and 40 units Benzonase (Millipore Sigma) followed by 30 to 60 min incubation at 37 °C until the pellets were fully dissolved. The DNA content from each sample was quantified on a nanodrop, and 10 µg of DNA was diluted to a final volume of 200 µL in 8 mM NaOH and 0.1% Tween. The samples were applied over the Whatman Minifold I dot blot apparatus (Cytiva) and collected on a PVDF membrane (Thermo Fisher Scientific). The membrane was washed three times with 8 mM NaOH and 0.1% Tween-20 solution prior to removal and blocking with the same wash solution containing 1 mg/mL BSA. Western blotting was carried out on an iBind (Thermo Fisher Scientific) and TOP2 proteins were detected using isoform-specific antibody against full length TOP2A (1:250 dilution; HT2A21, Inspiralis) and TOP2B (1:500 dilution; 611493, BD Biosciences) and visualized with anti-rabbit (1:1000 dilution; 926-68071, LI-COR Bio) and anti-mouse (1:1000 dilution; 926-32210, LI-COR Bio) secondary antibodies in iBind running buffer. The blots were imaged on a LI-COR Odyssey Fc and analysed using ImageStudio. Each presented data point was obtained from distinct sample.

For series [4], the target named is T4, TOP2A-DNA covalent complex (Homo sapiens, UniProt P11388).
T4 construct: endogenous in cells; host or cells: HEK293F
Description: RADAR assay, etoposide-induced TOP2A-DNA covalent complex in HEK293F cells. In kind it is cell-based. The following applies: etoposide 5 μM alone; independent replicates. The procedure: as §3

T4 sequence (P11388 whole entry, one chain of several): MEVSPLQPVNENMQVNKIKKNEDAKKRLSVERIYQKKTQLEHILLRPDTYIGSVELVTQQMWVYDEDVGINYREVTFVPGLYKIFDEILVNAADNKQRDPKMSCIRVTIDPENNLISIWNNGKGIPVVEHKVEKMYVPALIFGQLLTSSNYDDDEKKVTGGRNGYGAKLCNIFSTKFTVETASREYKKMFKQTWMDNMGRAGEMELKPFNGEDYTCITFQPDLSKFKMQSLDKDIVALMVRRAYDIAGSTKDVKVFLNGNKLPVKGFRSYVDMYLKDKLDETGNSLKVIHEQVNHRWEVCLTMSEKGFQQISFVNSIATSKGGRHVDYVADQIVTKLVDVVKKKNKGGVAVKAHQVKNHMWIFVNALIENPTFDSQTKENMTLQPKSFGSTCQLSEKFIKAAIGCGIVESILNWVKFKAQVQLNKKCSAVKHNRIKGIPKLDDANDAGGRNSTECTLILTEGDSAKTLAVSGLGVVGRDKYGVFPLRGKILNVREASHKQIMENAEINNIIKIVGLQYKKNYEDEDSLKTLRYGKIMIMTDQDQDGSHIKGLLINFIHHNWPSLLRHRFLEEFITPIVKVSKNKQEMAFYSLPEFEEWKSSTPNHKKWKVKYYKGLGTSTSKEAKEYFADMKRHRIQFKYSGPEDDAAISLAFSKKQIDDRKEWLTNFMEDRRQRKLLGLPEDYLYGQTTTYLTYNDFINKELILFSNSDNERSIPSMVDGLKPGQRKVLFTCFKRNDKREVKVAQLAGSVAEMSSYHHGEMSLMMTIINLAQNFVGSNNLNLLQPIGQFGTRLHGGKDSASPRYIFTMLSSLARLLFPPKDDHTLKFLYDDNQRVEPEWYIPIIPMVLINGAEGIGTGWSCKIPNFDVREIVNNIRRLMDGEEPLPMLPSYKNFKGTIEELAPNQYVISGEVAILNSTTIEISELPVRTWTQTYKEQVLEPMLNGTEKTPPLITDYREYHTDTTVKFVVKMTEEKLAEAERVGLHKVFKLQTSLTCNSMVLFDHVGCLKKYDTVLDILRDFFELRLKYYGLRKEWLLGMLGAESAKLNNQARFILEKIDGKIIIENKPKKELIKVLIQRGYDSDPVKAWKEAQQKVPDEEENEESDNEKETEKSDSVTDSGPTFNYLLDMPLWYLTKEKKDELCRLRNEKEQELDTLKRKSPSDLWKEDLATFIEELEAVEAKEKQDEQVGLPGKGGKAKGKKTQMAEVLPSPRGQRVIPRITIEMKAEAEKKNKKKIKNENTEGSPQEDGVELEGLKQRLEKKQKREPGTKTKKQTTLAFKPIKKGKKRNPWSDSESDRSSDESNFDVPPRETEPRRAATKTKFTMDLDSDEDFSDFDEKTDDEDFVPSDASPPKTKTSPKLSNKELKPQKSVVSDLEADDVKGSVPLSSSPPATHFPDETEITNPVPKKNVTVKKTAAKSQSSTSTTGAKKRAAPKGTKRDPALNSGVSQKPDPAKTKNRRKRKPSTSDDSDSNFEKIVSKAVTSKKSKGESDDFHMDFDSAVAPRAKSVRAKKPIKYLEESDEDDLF
T1 sequence (P11388 whole entry): as the sequence (P11388 whole entry, one chain of several) above
T2 sequence (Q02880 1-1621 isoform Q02880-2): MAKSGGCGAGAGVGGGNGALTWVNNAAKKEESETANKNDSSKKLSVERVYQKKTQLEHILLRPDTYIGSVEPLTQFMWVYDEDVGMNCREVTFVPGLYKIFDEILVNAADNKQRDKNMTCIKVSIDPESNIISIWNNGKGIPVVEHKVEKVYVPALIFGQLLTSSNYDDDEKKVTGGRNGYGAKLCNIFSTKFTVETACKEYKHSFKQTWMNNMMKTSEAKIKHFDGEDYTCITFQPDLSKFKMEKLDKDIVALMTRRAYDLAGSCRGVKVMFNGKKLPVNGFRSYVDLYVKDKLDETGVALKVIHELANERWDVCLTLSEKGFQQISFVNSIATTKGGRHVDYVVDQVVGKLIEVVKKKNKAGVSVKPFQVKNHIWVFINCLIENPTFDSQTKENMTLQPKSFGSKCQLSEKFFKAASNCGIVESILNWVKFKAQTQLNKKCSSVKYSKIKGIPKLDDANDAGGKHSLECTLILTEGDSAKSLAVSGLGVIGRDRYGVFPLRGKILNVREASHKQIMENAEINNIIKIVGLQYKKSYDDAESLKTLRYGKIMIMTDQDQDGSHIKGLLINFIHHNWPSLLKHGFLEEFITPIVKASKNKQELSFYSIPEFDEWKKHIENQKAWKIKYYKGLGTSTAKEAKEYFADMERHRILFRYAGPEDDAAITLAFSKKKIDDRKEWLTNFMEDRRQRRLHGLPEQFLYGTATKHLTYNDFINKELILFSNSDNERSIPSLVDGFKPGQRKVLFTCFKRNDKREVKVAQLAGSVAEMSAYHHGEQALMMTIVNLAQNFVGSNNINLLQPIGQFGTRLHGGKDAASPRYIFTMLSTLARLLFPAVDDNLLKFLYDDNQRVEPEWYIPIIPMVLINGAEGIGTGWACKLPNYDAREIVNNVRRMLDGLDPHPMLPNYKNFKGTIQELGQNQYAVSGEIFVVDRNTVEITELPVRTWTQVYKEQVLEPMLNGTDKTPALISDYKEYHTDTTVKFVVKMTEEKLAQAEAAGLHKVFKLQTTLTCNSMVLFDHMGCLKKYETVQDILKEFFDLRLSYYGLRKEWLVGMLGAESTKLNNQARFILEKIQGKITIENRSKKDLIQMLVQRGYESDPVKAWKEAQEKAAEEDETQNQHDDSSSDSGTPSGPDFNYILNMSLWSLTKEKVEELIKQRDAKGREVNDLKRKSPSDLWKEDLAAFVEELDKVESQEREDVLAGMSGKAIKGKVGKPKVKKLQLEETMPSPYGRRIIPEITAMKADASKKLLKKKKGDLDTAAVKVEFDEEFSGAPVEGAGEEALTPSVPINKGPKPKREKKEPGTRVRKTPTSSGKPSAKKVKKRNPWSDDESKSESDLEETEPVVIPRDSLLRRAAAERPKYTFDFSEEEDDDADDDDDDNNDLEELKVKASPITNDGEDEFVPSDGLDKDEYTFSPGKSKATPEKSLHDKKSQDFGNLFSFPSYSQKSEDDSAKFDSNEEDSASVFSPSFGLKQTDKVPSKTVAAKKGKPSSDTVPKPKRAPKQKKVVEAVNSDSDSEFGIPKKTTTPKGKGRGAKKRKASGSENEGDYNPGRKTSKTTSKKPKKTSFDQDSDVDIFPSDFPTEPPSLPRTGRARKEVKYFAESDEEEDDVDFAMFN
T3 sequence (Q02880 2-1626 limits assumed, one chain of several): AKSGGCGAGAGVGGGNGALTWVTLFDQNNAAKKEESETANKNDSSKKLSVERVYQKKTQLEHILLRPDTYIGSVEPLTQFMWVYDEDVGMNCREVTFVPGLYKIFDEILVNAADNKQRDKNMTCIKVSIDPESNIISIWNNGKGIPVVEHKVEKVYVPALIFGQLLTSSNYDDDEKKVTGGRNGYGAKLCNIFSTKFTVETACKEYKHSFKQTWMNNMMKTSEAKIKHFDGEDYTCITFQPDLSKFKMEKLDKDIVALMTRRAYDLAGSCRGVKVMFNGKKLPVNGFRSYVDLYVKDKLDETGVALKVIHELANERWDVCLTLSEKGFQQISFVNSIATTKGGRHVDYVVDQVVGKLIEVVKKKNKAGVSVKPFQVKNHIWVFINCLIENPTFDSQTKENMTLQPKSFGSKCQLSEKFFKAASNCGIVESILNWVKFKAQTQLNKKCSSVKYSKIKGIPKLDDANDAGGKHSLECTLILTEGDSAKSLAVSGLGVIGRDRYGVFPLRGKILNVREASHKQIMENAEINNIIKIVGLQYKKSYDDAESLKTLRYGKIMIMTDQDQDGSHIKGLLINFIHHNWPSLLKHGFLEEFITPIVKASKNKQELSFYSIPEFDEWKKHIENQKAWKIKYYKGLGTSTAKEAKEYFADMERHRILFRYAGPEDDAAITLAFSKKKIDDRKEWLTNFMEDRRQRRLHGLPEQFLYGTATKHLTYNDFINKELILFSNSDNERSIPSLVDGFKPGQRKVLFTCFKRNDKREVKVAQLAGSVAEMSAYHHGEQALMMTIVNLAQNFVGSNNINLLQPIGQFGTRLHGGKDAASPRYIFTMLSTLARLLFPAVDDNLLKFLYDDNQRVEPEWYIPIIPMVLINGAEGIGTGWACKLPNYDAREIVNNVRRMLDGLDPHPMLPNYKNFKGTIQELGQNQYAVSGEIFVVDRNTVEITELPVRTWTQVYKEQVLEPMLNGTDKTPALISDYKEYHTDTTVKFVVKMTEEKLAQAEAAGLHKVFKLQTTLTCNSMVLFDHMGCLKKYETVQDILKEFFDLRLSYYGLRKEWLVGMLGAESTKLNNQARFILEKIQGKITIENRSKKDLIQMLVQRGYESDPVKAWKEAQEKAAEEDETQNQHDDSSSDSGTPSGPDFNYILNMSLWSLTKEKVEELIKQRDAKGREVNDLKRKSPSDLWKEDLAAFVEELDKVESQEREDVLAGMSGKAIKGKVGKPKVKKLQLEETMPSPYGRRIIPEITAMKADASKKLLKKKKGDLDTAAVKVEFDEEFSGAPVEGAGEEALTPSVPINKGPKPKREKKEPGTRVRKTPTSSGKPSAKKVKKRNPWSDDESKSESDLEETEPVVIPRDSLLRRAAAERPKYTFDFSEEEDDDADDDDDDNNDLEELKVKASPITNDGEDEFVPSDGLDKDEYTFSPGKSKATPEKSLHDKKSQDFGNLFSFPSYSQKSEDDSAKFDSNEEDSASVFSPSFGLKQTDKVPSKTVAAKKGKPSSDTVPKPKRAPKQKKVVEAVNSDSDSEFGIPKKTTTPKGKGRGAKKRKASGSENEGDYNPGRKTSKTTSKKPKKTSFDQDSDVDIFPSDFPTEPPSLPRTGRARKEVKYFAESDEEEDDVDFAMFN

Broadly, the IC50 is the concentration that gives 50% inhibition. As to `CCc1cc(=O)oc2c(C(=O)N3CCCc4ccccc43)c(OCCO)ccc12` [5b], in series [1], the “LTC = lowest toxic concentration” value is greater than 30 µM. Further, the “LDH release (inherent toxicity), mean of independent replicates” value (shortened to “LDH release (inherent toxicity), mean”) in series [1] (compound alone 0.1 µM) is listed as 13.7703; in series [1] (compound alone 1 µM), 14.0098; in series [1] (compound alone 10 µM), 14.5134; in series [1] (compound alone 30 µM), 14.3714. Further, the IC50 was 1420 nM on recombinant human TOP2A and 1460 nM on recombinant human TOP2B. In addition, the “SRbeta (SRTOP2B), TOP2 ATPase activity” value on recombinant human TOP2B amounted to 1.0. Moreover, in series [2], the minimal effective concentration turned out to be 10 µM. Moreover, the “Suppl.Fig.3 DAU-induced cytotoxicity (LDH release) in NVCM, mean of independent replicates” value (shortened to “Suppl.Fig.3 DAU-induced cytotoxicity”) in series [2] (compound 0.1 µM + DAU 1.2 µM) stood at 53.5677; in series [2] (compound 1 µM + DAU 1.2 µM), 49.2444; in series [2] (compound 10 µM + DAU 1.2 µM), 40.137; in series [2] (compound 30 µM + DAU 1.2 µM) it was 35.8495.
In the case of `CCCc1cc(=O)oc2c(C(=O)N3CCCc4ccccc43)c(OC)ccc12` [3c], the “LTC = lowest toxic concentration” value in series [1] was greater than 10 µM. For the same compound, the “LDH release (inherent toxicity), mean” value in series [1] (compound alone 0.1 µM) came out at 16.0204; in series [1] (compound alone 1 µM), 16.3627; in series [1] (compound alone 3 µM), 15.3033; in series [1] (compound alone 10 µM), 16.4282. Further, the IC50 on recombinant human TOP2A was found to be 1270 nM; on recombinant human TOP2B, 780 nM. Also, the “SRbeta (SRTOP2B), TOP2 ATPase activity” value at recombinant human TOP2B is recorded as 1.6. Besides, the minimal effective concentration in series [2] stood at 1 µM. Also, the “Suppl.Fig.3 DAU-induced cytotoxicity” value in series [2] (compound 0.1 µM + DAU 1.2 µM) is 33.8238; in series [2] (compound 1 µM + DAU 1.2 µM), 29.3632; in series [2] (compound 3 µM + DAU 1.2 µM), 26.6827; in series [2] (compound 10 µM + DAU 1.2 µM), 23.4291.
`CCCOc1ccc2c(CCC)cc(=O)oc2c1C(=O)N1CCCc2ccccc21` [4c]: the “LDH release (inherent toxicity), mean” value worked out at 13.5244 in series [1] (compound alone 0.01 µM); 16.7326 in series [1] (compound alone 0.1 µM); 16.4897 in series [1] (compound alone 1 µM); 23.8379 in series [1] (compound alone 10 µM); 34.5318 in series [1] (compound alone 30 µM); 48.1102 in series [1] (compound alone 100 µM). Further, the IC50 on recombinant human TOP2A came out at 1870 nM; at recombinant human TOP2B it was 850 nM. Further, the “SRbeta (SRTOP2B), TOP2 ATPase activity” value at recombinant human TOP2B is recorded as 2.2. For the same compound, the minimal effective concentration in series [2] is 0.1 µM. Further, the “Suppl.Fig.3 DAU-induced cytotoxicity” value worked out at 45.7304 in series [2] (compound 0.01 µM + DAU 1.2 µM); 37.3488 in series [2] (compound 0.1 µM + DAU 1.2 µM); 27.8991 in series [2] (compound 1 µM + DAU 1.2 µM); 34.5307 in series [2] (compound 10 µM + DAU 1.2 µM); 56.7644 in series [2] (compound 30 µM + DAU 1.2 µM); 78.8192 in series [2] (compound 100 µM + DAU 1.2 µM).
Take `COc1cc([C@@H]2c3cc4c(cc3[C@@H](O[C@@H]3O[C@@H]5CO[C@@H](C)O[C@H]5[C@H](O)[C@H]3O)[C@H]3COC(=O)[C@H]23)OCO4)cc(OC)c1O` [etoposide, reference compound]: in series [3], the TOP2B spot intensity is 173.9 and 77.69 and 59.37 and 61.46. In addition, the TOP2A spot intensity in series [4] was 63.37 and 136 and 84.27 and 127.1 and 89.2.
